The values below come from patent US8624035B2, “Functionalized cyanine having a silane linker arm, a method of preparing thereof and uses thereof” (Universita' Degli Studi di Torino, priority 2008, dated 2014).

The series is described as follows: Photodegradation over time under excitation with laser light at 532 nm. The conditions noted are these: after 350 minutes, FIG. 3. The class given is physicochemical. Here is the method:
The emission of nanoparticles is 15-folds higher than the emission of the solution. Moreover, the photodegradation of fluorescent nanoparticles over time was compared to the photodegradation of the cyanine in solution. […] It observed that the cyanine immobilized within the nanoparticle undergoes a 5% photodegradation after 350 minutes, whilst the cyanine dye in solution undergoes a 45% photodegradation within the same time.

For `CO[Si](CCCN1/C(=C/C=C/C2=[N+](CCC[Si](OC)(OC)OC)c3ccc(S(=O)(=O)[O-])cc3C2(C)C)C(C)(C)c2cc(S(=O)(=O)[O-])ccc21)(OC)OC.[K+]` [Compound 1, 1-propyltrimethoxysilane-1′-propyltrimethoxysilane-3,3,3,3′-tetramethyl-5,5′-disulfonate-indomonocarbocyanine potassium salt], the “photodegradation (percentage of emission compared to time zero)” value is given as 45%.
